Assay results from patent US4181710A, “Rumen-stable pellets” (Eastman Kodak Company, priority 1978, dated 1980).
In brackets after ≈: the same amount, converted by molar mass.

Experiment: Solubility of amino acids in water
Assay type: physicochemical
Conditions: at 25° C.

| solubility | SMILES |
| --- | --- |
| 167 mg/mL (≈ 1870 mM) | CC(N)C(=O)O (racemic) [DL - Alanine] |
| 40 mg/mL (≈ 268 mM) | CSCCC(N)C(=O)O (racemic) [DL - Methionine] |
